Test results published in US8895509B2, “MIR-200 family induces mesenchymal-to-epithelial transition (MET) in ovarian cancer cells” (Georgia Tech Research Corporation, priority 2010, dated 2014).

Test system: HEY cells
Test: sensitivity of transfected HEY cells to cisplatin
Assay type: cell-based, human
Settings: cisplatin 0.1-50 μM
Procedure: Cultures of the mesenchymal HEY cells were transfected with a negative control (NC) miRNA or miR-429 using Lipofectamine 2000 (Invitrogen) and treated with increasing concentrations of cisplatin. (0.1, 0.5, 1, 3, 5, 7, 10, 15, 20, 30, 50 μM).

N.N.[Cl][Pt][Cl] [cisplatin]
IC50 (HEY cells transfected with miR-429): 4.6 µM | IC50 (HEY cells transfected with negative control (NC) miRNA): 8.7 µM
